Experimental data taken from patent US20240374879A1, “METHODS AND COMPOSITIONS TO REDUCE CELLULAR DEPOSITION, AND HYDROCEPHALUS SHUNT FAILURE” (Wayne State University, priority 2021, published 2024).

What was measured:
A2 reactive astrocytes = experiment: A2 reactive astrocyte attachment on PDMS coated plates (targeted drug delivery); assay type: cell-based, mouse; settings: 30 ng/ml, 48 h; FIG. 5B
A1 reactive astrocytes = experiment: A1 reactive astrocyte attachment on PDMS coated plates (targeted drug delivery); assay type: cell-based, mouse; settings: 30 ng/ml, 48 h
Description: Purification of astrocytes by immunopanning: Astrocytes were purified by immunopanning from post-natal day (P) 5 mouse brains and cultured as previously described (Foo et al., Neuron. 71(5):799-811, 2011). Cerebral cortices were dissected and enzymatically digested using papain at 37° C. and 10% CO2. Tissue was then mechanically triturated with a serological pipette at RT to generate a single-cell suspension. The suspension was filtered and negatively panned for microglia/macrophage cells (CD45), oligodendrocyte progenitor cells (04 hybridoma), and endothelial cells (L1) followed by positive panning for astrocyte cells (ITGB5). Astrocytes were cultured in defined, serum-free medium containing 50% neurobasal, 50% DMEM, 100 U/mL penicillin, 100 μg/mL streptomycin, 1 mM sodium pyruvate, 292 μg/mL L-glutamine, 1×SATO, 5 μg/mL of N-acetyl cysteine, and 5 ng/mL HBEGF.
Targeted drug delivery: A1 reactive astrocytes were generated by culturing the purified astrocytes on PDMS coated tissue culture plates and then treating for 24 h with IL-1α (3 ng/ml, Sigma, 13901), TNF-α (30 ng/ml, Cell Signaling Technology, 8902SF), and C1q (400 ng/ml, MyBioSource, MBS143105). […]

Substance: TGF-β
- attachment of A2 astrocytes on PDMS coated surfaces (A2 reactive astrocytes): did not induce
- A1 astrocyte reactive state (A1 reactive astrocytes): reset A1 astrocytes to a non-reactive state
- attachment of A1 astrocytes on PDMS coated surfaces (A1 reactive astrocytes; FIG. 5A): significantly reducing
